Read-outs that look alike come from different tables or passages of the source.
How the values were obtained:
[1] = test system: β-alanine aminopeptidase; assay: APIZYM-type test strips with β-alanyl-β-naphthylamide; format: cell-based; conditions: Enterobacter aerogenes; five strains
[2] = test system: β-alanine aminopeptidase; assay: as above; format: cell-based; conditions: Vibrio parahaemolyticus; 4 strains
[3] = test system: β-alanine aminopeptidase; assay: as above; format: cell-based; conditions: Weeksella virosa; 4 strains
[4] = test system: β-alanine aminopeptidase; assay: as above; format: cell-based; conditions: Sphingobacterium multivorum; five strains
[5] = test system: β-alanine aminopeptidase; assay: as above; format: cell-based; conditions: Psychrobacter phenylpyruvicus; 4 strains
[6] = test system: β-alanine aminopeptidase; assay: as above; format: cell-based; conditions: Proteus vulgaris; five strains
[7] = test system: β-alanine aminopeptidase; assay: as above; format: cell-based; conditions: Achromobacter xylosoxidans, spp. xylosoxidans; five strains
[8] = test system: β-alanine aminopeptidase; assay: as above; format: cell-based; conditions: Aeromonas hydrophila; five strains
[9] = test system: β-alanine aminopeptidase; assay: as above; format: cell-based; conditions: Salmonella arizonae; five strains
[10] = test system: β-alanine aminopeptidase; assay: as above; format: cell-based; conditions: Pseudomonas stutzeri; five strains
[11] = test system: β-alanine aminopeptidase; assay: as above; format: cell-based; conditions: Sphingomonas paucimobilis; five strains
[12] = test system: β-alanine aminopeptidase; assay: as above; format: cell-based; conditions: Moraxella osloensis; 18 strains
[13] = test system: β-alanine aminopeptidase; assay: as above; format: cell-based; conditions: Myroïdes spp.; five strains
[14] = test system: β-alanine aminopeptidase; assay: as above; format: cell-based; conditions: Plesiomonas shigelloïdes; five strains
[15] = test system: β-alanine aminopeptidase; assay: as above; format: cell-based; conditions: Providencia stuartii; five strains
[16] = test system: β-alanine aminopeptidase; assay: as above; format: cell-based; conditions: Pasteurella aerogenes; five strains
[17] = test system: β-alanine aminopeptidase; assay: as above; format: cell-based; conditions: Chryseobacterium meningosepticum; five strains
[18] = test system: β-alanine aminopeptidase; assay: as above; format: cell-based; conditions: Salmonella gallinarum; 3 strains
[19] = test system: β-alanine aminopeptidase; assay: as above; format: cell-based; conditions: Citrobacter freundii; five strains
[20] = test system: β-alanine aminopeptidase; assay: as above; format: cell-based; conditions: Shigella spp.; 4 strains
[21] = test system: β-alanine aminopeptidase; format: cell-based; conditions: Yersinia pseudotuberculosis; five strains
[22] = test system: β-alanine aminopeptidase; assay: APIZYM-type test strips with β-alanyl-β-naphthylamide; format: cell-based; conditions: Enterobacter sakazakii; five strains
[23] = test system: β-alanine aminopeptidase; assay: as above; format: cell-based; conditions: Hafnia alvei; five strains
[24] = test system: β-alanine aminopeptidase; assay: as above; format: cell-based; conditions: Proteus morganii; five strains
[25] = test system: β-alanine aminopeptidase; assay: as above; format: cell-based; conditions: Serratia fonticola; five strains
[26] = test system: β-alanine aminopeptidase; assay: as above; format: cell-based; conditions: Actinobacillus ureae; 1 strain
[27] = test system: β-alanine aminopeptidase; assay: as above; format: cell-based; conditions: Serratia liquefaciens; five strains
[28] = test system: β-alanine aminopeptidase; assay: as above; format: cell-based; conditions: Actinobacillus spp.; five strains
[29] = test system: β-alanine aminopeptidase; conditions: Enterobacter intermedius; 1 strain tested; read after 22 to 24 hours
[30] = test system: β-alanine aminopeptidase; conditions: Serratia liquefaciens; 1 strain tested; read after 22 to 24 hours
[31] = test system: β-alanine aminopeptidase; conditions: Vibrio vulnificus; 1 strain tested; read after 22 to 24 hours
[32] = test system: β-alanine aminopeptidase; conditions: Ralstonia pickettii; 1 strain tested; read after 22 to 24 hours
[33] = test system: β-alanine aminopeptidase; conditions: Enterobacter aerogenes; 2 strains tested; read after 22 to 24 hours
[34] = test system: β-alanine aminopeptidase; conditions: Sphingomonas paucimobilis; 2 strains tested; read after 22 to 24 hours
[35] = test system: β-alanine aminopeptidase; conditions: Burkholderia vesicularis; 1 strain tested; read after 22 to 24 hours
[36] = test system: β-alanine aminopeptidase; conditions: Stenotrophomonas maltophilia; 2 strains tested; read after 22 to 24 hours
[37] = test system: β-alanine aminopeptidase; conditions: Klebsiella oxytoca; 2 strains tested; read after 22 to 24 hours
[38] = test system: β-alanine aminopeptidase; conditions: Chryseobacterium meningosepticum; 2 strains tested; read after 22 to 24 hours

β-alanyl-β-naphthylamide
negative: β-alanine aminopeptidase activity, result [1] | β-alanine aminopeptidase activity, result [2] | β-alanine aminopeptidase activity, result [3] | β-alanine aminopeptidase activity, result [4] | β-alanine aminopeptidase activity, result [5] | β-alanine aminopeptidase activity, result [6] | β-alanine aminopeptidase activity, result [7] | β-alanine aminopeptidase activity, result [8] | β-alanine aminopeptidase activity, result [9] | β-alanine aminopeptidase activity, result [10] | β-alanine aminopeptidase activity, result [11] | β-alanine aminopeptidase activity, result [12] | β-alanine aminopeptidase activity, result [13] | β-alanine aminopeptidase activity, result [14] | β-alanine aminopeptidase activity, result [15] | β-alanine aminopeptidase activity, result [16] | β-alanine aminopeptidase activity, result [17] | β-alanine aminopeptidase activity, result [18] | β-alanine aminopeptidase activity, result [19] | β-alanine aminopeptidase activity, result [20] | β-alanine aminopeptidase activity, result [21] | β-alanine aminopeptidase activity, result [22] | β-alanine aminopeptidase activity, result [23] | β-alanine aminopeptidase activity, result [24] | β-alanine aminopeptidase activity, result [25] | β-alanine aminopeptidase activity, result [26] | β-alanine aminopeptidase activity, result [28]
positive: β-alanine aminopeptidase activity, result [27]

NCCC(=O)c1c(N)cc(Cl)c(O)c1Cl
2: Number of negative results [33] | Number of negative results [34] | Number of negative results [36] | Number of negative results [37] | Number of negative results [38]
0: Number positive results [29] | Number of negative results [30] | Number positive results [31] | Number positive results [32] | Number positive results [33] | Number positive results [34] | Number positive results [35] | Number positive results [36] | Number positive results [37] | Number positive results [38]
1: Number of negative results [29] | Number positive results [30] | Number of negative results [31] | Number of negative results [32] | Number of negative results [35]
